From PMC12564639, “Discovery of a Novel Anticoagulant Cystine Knot Peptide from Spider Venom Gland Transcriptome” (International Journal of Molecular Sciences, 2025)
Peptide text beside a SMILES is read from it.

Assays:
[1] = target: T1, Human Activated Protein C (APC-1.0) (Homo sapiens, UniProt P04070); experiment: APC activity by chromogenic substrate assay; type: biochemical; conditions: APC 0.7145 μM, S-2366 402.1 μM, PBS, 37 °C, pre-incubation 10 min, n = 3
T1 construct: purchased Enzyme Research Laboratories, Inc., South Bend, IN, USA APC-1.0
Description: Human Activated Protein C (APC-1.0) was purchased from Enzyme Research Laboratories, Inc., South Bend, IN, USA. […] Activated Partial Thromboplastin Time (APTT) Test Kit (TC0306) was bought from Senkey Biotechnology Co., Ltd., Kunming, China. Prothrombin Time (PT) Test Kit (GMS10176) was purchased from GENMED Scientifics Inc., Shanghai, China. Streptavidin (SA) Biosensors (18-5019) were obtained from Sartorius AG, Göttingen, Lower Saxony, Germany. PBS (21-040-CVC) was bought from Corning Incorporated, Corning, NY, USA. Tween-20 (BS361B) was purchased from Biosharp Life Sciences, Hefei, Anhui, China. Trifluoroacetic acid (TFA, T818778-500ml, CAS: 76-05-1) and CaCl2 (C805225) were obtained from Macklin Biochemical Co., Ltd., Shanghai, China. L-oxidized glutathione (GSSG, V900363), Rose Bengal Dye (content 95%, CAS: 632-69-9, 330000-5G), and HEPES (V900477-500G) were purchased from Sigma-Aldrich LLC, St. Louis, MO, USA (Shanghai branch: Sigma-Aldrich Shanghai Trading Co., Ltd., Shanghai, China). […]
APC (0.7145 μM) was pre-incubated with varying concentrations of GC38 (0.1, 1 and 10 μM) in PBS at 37 °C for 10 min. […] Kinetic measurements were performed at 37 °C using a Multi-Mode Microplate Reader (BioTek Synergy™ H1, Winooski, VT, USA) with absorbance at 405 nm recorded every 10 s for 30 min. […]

[2] = tested on: human keratinocytes (HaCaT); experiment: Cytotoxicity (CCK-8), HaCaT; type: cell-based; conditions: 24 h, n = 3
Protocol: (§1) The cytotoxicity of GC38 was evaluated in human embryonic kidney cells (HEK293T), human keratinocytes (HaCaT), and murine macrophage (RAW264.7) cell lines. The cells were from Kunming Cell Bank, Chinese Academy of Sciences. HEK293T and HaCaT cells were cultured in DMEM supplemented with 10% fetal bovine serum (FBS) and 1% penicillin-streptomycin, and RAW264.7 cells were maintained in RPMI 1640 containing 10% FBS and 1% penicillin–streptomycin, with all cell lines incubated at 37 °C under 5% CO2. For cytotoxicity assessment, cells were seeded at a density of 1 × 10^5 cells per well in 96-well plates and incubated for 12 h. […] After 24 h incubation, cell viability was determined using the CCK-8 assay (10 μL/well). Absorbance was measured at 450 nm using a multi-mode microplate reader (BioTek Synergy™ H1, Winooski, VT, USA). Untreated cells and cells treated with 10% DMSO served as negative and positive controls, respectively. Viability percentages were calculated relative to the untreated control. All experiments were conducted in triplicate, and data were expressed as mean ± SEM.

[3] = tested on: murine macrophage (RAW264.7); experiment: Cytotoxicity (CCK-8), RAW264.7; type: cell-based; set-up: cytotoxicity RAW264.7: dose or concentration left out as unconfirmed; conditions: 24 h, n = 3
Protocol: as §1

[4] = tested on: FeCl3-induced carotid artery thrombosis in mice; experiment: FeCl3-induced carotid artery thrombosis model; type: in vivo, C57BL/6J mice; conditions: for blood flow reduction, carotid artery: 10 min before FeCl3, n = 6
Protocol: The C57BL/6J mice (male, 6–8 weeks old) were purchased from Beijing Vital River Laboratory Animal Technology Co., Ltd. (Beijing, China). All animal studies were performed under the approval of the Ethics Committee of the Laboratory Animal Welfare of the Kunming Institute of Zoology, Chinese Academy of Sciences (IACUC-RE-2025-03-010).
Male C57BL/6J mice (6–8 weeks old, n = 6 per group) were randomly assigned to groups receiving intravenous injections of PBS (vehicle control), GC38 (2 or 4 mg/kg in PBS), and heparin sodium (1000 U/kg), respectively. Ten minutes post-injection, mice were anesthetized with 2% isoflurane inhalation. The right carotid artery was surgically exposed, and endothelial injury was induced by applying a 1 × 2 mm filter paper saturated with 10% (w/v) FeCl3 solution for 30 s. Real-time blood flow was monitored using a real-time laser speckle perfusion (LSP) imaging system (RWD Life Science, Shenzhen, China) with SIM BFI software (SIM BFI HR Pro, Simopto, Beijing, China). Thrombosis progression and vessel occlusion were evaluated using real-time ultrasound imaging of the region of interest at baseline (before injury), 5, and 10 min (post-injury). The perfusion unit was recorded to quantify the blood flow. Vessel occlusion was defined as a sustained reduction in perfusion units to ≤10% of baseline for at least 3 min. Data are presented as mean ± SEM.

[5] = 50 μM, serum-free medium, CCK-8, 450 nm, relative to untreated control

T1 sequence (P04070 212-461 limits assumed): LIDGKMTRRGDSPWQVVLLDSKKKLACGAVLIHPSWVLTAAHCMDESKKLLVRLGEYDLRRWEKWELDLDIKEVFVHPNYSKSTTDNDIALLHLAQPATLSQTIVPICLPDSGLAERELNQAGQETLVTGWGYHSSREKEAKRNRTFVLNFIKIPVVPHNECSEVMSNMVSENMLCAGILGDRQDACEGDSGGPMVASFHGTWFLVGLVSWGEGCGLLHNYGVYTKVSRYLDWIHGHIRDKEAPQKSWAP
T1 sequence (P04070 43-197 limits assumed): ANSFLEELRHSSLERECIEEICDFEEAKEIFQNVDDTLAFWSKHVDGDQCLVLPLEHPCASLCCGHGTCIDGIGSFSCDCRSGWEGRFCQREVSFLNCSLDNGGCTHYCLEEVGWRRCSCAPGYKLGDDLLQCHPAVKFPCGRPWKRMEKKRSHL

CSCC[C@@H]1NC(=O)[C@H](CC(N)=O)NC(=O)CNC(=O)CNC(=O)[C@H](Cc2c[nH]cn2)NC(=O)[C@H](CCCNC(=N)N)NC(=O)CNC(=O)[C@@H]2CSSC[C@@H]3NC(=O)[C@H](CCCNC(=N)N)NC(=O)[C@H](C)NC(=O)CNC(=O)[C@H](CCCCN)NC(=O)CNC(=O)[C@H](CO)NC(=O)[C@@H](NC(=O)CN)CSSC[C@H](NC(=O)[C@H](CSSC[C@@H](C(=O)N[C@@H](CCC(=O)O)C(=O)N[C@@H](Cc4c[nH]c5ccccc45)C(=O)N[C@@H](CC(N)=O)C(=O)N[C@@H](Cc4c[nH]c5ccccc45)C(=O)N[C@@H](CCCCN)C(=O)N[C@H](C(=O)NCC(=O)O)[C@@H](C)O)NC(=O)[C@H](CO)NC(=O)[C@H](CCCCN)NC(=O)[C@H](Cc4ccc(O)cc4)NC1=O)NC(=O)[C@H](CCCCN)NC(=O)[C@H](CO)NC(=O)[C@@H]1CCCN1C(=O)[C@H](C)NC3=O)C(=O)N[C@@H](CO)C(=O)NCC(=O)N[C@@H](CC(C)C)C(=O)N[C@@H](CO)C(=O)N2 [GC38] (HELM PEPTIDE1{G.C.S.G.K.G.A.R.C.A.P.S.K.C.C.S.G.L.S.C.G.R.H.G.G.N.M.Y.K.S.C.E.W.N.W.K.T.G}$PEPTIDE1,PEPTIDE1,2:R3-15:R3|PEPTIDE1,PEPTIDE1,9:R3-20:R3|PEPTIDE1,PEPTIDE1,14:R3-31:R3$$$V2.0)
activity of APC at maximum catalytic velocity (Vmax) ([1]; GC38 10 μM, 405 nm, versus PBS control, mean): 171% | APC activity, concentration dependence ([1]; GC38 0.1-10 μM, absorbance 405 nm every 10 s for 30 min): enhanced APC activity in a concentration-dependent manner | cell viability HaCaT [2, 5]: greater than 95% | cytotoxicity HaCaT ([2]; 0.1–50 μM, CCK-8): negligible cytotoxicity | cell viability RAW264.7 [3, 5]: greater than 95% | cytotoxicity RAW264.7 ([3]; CCK-8): negligible cytotoxicity | FeCl3-induced vascular occlusion ([4]; 2 and 4 mg/kg i.v., Doppler flowmetry / laser speckle perfusion): alleviated FeCl3-induced vascular occlusion in mice | blood flow reduction, carotid artery ([4]; GC38 2 mg/kg i.v., 5 min after 10% FeCl3): 20.6% | blood flow reduction, carotid artery ([4]; GC38 2 mg/kg i.v., 10 min after 10% FeCl3): 44.0% | blood flow reduction, carotid artery ([4]; GC38 4 mg/kg i.v., 5 min after 10% FeCl3): 11.8% | blood flow reduction, carotid artery ([4]; GC38 4 mg/kg i.v., 10 min after 10% FeCl3): 29.4%
